Measurements: patent US6558923B2 (priority 1998, dated 2003)

Columns and labels:
Type in all cases: cell-based, HIV-1
[1] = system: NL4-3 reference virus; test: microbe, parasite or virus in culture; conditions: Human immunodeficiency virus 1, NL43, read-out: Geometric-mean IC90
[2] = system: recombinant virus carrying gag-protease sequences from patient plasma
[3] = system: recombinant virus carrying protease sequences from patient plasma

Structure (SMILES) | IC90 [1] | Sensitivity correlated with genotype [2] | Change in IC90 [3] | Effect of increasing protease inhibitor concentrations on infectivity of recombinant particles [3] | IC90 of pre-therapy recombinant viruses compared with the other protease inhibitors [3] | Susceptibility of pre-therapy virus from patient B versus pre-therapy virus from patient A [3] | Reduction in sensitivity [2] | Sensitivity [2]
CC(C)c1nc(CN(C)C(=O)N[C@H](C(=O)N[C@@H](Cc2ccccc2)C[C@H](O)[C@H](Cc2ccccc2)NC(=O)OCc2cncs2)C(C)C)cs1 [Ritonavir] | 23 nM | reduced sensitivity |  |  |  |  |  | 
CC(C)(C)NC(=O)[C@@H]1C[C@@H]2CCCC[C@@H]2CN1C[C@@H](O)[C@H](Cc1ccccc1)NC(=O)[C@H](CC(N)=O)NC(=O)c1ccc2ccccc2n1 [Saquinavir] | 28 nM | resistance | prominent increase | clear and gradual inhibition of single-cycle particle infectivity | always significantly lower | clearly less susceptible | 4 fold | further reduced
CC(C)(C)NC(=O)[C@@H]1CN(Cc2cccnc2)CCN1C[C@@H](O)C[C@@H](Cc1ccccc1)C(=O)N[C@H]1c2ccccc2C[C@H]1O [Indinavir] | 16 nM | reduced sensitivity |  | clear and gradual inhibition of single-cycle particle infectivity |  |  | 10 fold | further reduced
CC(C)CN(C[C@@H](O)[C@H](Cc1ccccc1)NC(=O)O[C@H]1CCOC1)S(=O)(=O)c1ccc(N)cc1 [Amprenavir, amprenavir] | 54 nM |  |  |  |  |  |  | 
Cc1c(O)cccc1C(=O)N[C@@H](CSc1ccccc1)[C@H](O)CN1C[C@H]2CCCC[C@H]2C[C@H]1C(=O)NC(C)(C)C [Nelfinavir, nelfinavir] | 3.5 nM | reduced sensitivity |  |  |  |  |  | 
